Measured values published in US20090105305A1, “Therapeutic Agents - 550” (AstraZeneca AB, priority 2006, published 2009).

target: T1, human Fatty Acid Synthase (Homo sapiens, UniProt P49327); test: Human FAS enzyme assay (decrease in NADPH fluorescence); assay type: biochemical; conditions: % inhibition at a concentration of 100 micromolar
T1 construct: made in house
Procedure, shortened: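 In-house human FAS (0.4 μg) was preincubated 15 min at RT with compound and NADPH (added at 166.6 μM) in 0.1 M Tris pH 7.5, 1 mM glutathione, 0.05% BSA. Malonyl-/acetyl-CoA (500/150 μM in substrate mix) was then added for 60 min. Readout was NADPH fluorescence loss (ex 340/em 460) over a time-zero read, with IC50 from a sigmoid fit.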

T1 sequence (P49327 whole entry): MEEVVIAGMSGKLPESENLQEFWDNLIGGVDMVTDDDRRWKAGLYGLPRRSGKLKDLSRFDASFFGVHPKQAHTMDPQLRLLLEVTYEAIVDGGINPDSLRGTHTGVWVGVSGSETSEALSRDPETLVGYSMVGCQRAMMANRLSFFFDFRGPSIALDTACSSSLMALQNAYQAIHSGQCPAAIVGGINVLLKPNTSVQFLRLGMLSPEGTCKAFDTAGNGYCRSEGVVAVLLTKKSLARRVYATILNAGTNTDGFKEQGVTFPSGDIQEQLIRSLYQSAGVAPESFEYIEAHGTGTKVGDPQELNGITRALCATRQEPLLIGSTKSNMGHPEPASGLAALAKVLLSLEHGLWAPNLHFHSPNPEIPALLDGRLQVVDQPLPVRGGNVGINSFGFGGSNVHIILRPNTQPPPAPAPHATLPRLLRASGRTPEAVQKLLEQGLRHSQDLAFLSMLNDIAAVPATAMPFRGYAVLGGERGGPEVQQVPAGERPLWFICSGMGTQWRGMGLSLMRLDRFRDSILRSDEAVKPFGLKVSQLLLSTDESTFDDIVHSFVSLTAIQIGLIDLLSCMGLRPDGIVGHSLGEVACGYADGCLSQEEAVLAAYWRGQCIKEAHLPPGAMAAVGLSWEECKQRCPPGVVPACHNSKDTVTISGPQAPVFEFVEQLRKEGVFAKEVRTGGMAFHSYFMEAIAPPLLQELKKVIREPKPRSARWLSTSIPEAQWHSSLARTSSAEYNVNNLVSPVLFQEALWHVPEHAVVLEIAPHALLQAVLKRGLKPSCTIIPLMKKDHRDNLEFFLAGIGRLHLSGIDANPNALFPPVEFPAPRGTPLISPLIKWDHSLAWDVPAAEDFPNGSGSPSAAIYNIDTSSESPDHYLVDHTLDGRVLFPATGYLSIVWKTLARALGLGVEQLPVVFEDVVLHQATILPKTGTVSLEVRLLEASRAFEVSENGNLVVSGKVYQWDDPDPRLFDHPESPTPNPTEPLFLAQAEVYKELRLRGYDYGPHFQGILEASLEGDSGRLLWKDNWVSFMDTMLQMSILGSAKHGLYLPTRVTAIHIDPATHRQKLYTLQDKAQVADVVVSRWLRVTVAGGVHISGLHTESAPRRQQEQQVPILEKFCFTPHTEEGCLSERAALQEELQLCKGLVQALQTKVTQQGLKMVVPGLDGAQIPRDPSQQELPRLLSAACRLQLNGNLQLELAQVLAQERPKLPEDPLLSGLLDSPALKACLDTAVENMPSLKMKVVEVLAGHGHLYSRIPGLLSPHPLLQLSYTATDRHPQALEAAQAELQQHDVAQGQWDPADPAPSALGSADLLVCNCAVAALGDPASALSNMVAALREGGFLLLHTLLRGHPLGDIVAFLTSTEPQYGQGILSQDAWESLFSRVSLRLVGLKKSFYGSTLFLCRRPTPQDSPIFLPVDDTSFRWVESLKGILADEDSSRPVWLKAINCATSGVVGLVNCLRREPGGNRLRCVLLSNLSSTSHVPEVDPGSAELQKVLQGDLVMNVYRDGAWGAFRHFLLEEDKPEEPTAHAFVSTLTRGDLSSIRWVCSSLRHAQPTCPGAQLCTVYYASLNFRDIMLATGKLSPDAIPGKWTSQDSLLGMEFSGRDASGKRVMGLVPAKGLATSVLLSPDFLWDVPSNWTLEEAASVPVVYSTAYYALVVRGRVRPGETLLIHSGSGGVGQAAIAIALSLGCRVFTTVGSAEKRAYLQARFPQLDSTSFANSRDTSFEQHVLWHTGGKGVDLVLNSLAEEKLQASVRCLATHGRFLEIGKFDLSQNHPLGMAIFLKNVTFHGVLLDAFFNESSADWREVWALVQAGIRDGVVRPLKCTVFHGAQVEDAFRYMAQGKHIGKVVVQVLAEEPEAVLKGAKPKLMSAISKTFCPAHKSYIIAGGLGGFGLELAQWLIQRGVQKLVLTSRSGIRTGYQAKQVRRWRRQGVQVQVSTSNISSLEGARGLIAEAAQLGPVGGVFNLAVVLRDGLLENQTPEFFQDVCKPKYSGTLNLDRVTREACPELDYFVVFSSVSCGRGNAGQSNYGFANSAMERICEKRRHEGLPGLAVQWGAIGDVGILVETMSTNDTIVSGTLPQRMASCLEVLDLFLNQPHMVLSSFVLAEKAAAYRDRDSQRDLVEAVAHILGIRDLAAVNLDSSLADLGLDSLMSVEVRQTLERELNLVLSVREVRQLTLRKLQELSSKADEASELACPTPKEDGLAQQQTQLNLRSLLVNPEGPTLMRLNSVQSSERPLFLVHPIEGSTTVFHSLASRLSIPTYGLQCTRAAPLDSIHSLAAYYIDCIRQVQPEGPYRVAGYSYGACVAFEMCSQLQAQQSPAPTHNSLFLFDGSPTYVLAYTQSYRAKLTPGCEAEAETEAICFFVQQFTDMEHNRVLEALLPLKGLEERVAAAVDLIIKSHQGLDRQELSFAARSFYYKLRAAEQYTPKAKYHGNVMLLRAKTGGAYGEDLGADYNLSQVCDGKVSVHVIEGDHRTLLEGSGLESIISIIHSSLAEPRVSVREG

For `Cc1ccc(C(=O)N2CCC(c3ccc(C#N)cc3)CC2)cc1NS(=O)(=O)c1cnoc1C` [Example 95, N-[5-[4-(4-cyanophenyl)piperidine-1-carbonyl]-2-methyl-phenyl]-5-methyl-1,2-oxazole-4-sulfonamide], which inhibition at 100 µM is on record?
The inhibition at 100 µM was 73%.

With `Cc1ccc(C(=O)N2CCC(c3ccc(C(=O)NCCN(C)C)cc3)CC2)cc1NS(C)(=O)=O` [Example 222, N-(2-dimethylaminoethyl)-4-[1-(3-methanesulfonamido-4-methylbenzoyl)piperidin-4-yl]benzamide] as the compound, how does the inhibition at 100 µM read?
The inhibition at 100 µM was 64%.

For `CNC(=O)Cc1ccc(C2CCN(C(=O)c3ccc(C)c(NS(C)(=O)=O)c3)CC2)cc1` [Example 240, 2-[4-[1-(3-methanesulfonamido-4-methylbenzoyl)piperidin-4-yl]phenyl]-N-methylacetamide], which inhibition at 100 µM is on record?
Its inhibition at 100 µM is 63.9%.

With `Cc1ccc(C(=O)N2CCC(c3ccc(Oc4ncccn4)cc3)CC2)cc1NS(C)(=O)=O` [Example 190, N-[2-methyl-5-[4-(4-pyrimidin-2-yloxyphenyl)piperidine-1-carbonyl]phenyl]methanesulfonamide] as the compound, how does the inhibition at 100 µM read?
The inhibition at 100 µM was 88%.

For `Cc1ccc(C(=O)N2CCC(c3ccc(C#N)cc3)CC2)cc1NS(=O)(=O)c1cnc(C)n1C` [Example 114, N-[5-[4-(4-cyanophenyl)piperidine-1-carbonyl]-2-methyl-phenyl]-2,3-dimethyl-imidazole-4-sulfonamide], which inhibition at 100 µM is on record?
Its inhibition at 100 µM is 85%.

For `COCCOc1ccc(C2CCN(C(=O)c3ccc(C)c(NS(C)(=O)=O)c3)CC2)cc1` [Example 219, N-[5-[4-[4-(2-methoxyethoxy)phenyl]piperidine-1-carbonyl]-2-methylphenyl]methane-sulfonamide], which inhibition at 100 µM is on record?
The inhibition at 100 µM was 87%.

How did the inhibition at 100 µM turn out when `Cc1ccc(C(=O)N2CCC(c3ccc(C#N)cc3)CC2)cc1NS(=O)(=O)CC1CCCC1` [Example 16, N-[5-[4-(4-cyanophenyl)piperidine-1-carbonyl]-2-methyl-phenyl]-1-cyclopentyl-methanesulfonamide] was run?
The inhibition at 100 µM was 95%.

Which inhibition at 100 µM does the source give for `Cc1ccc(C(=O)N2CCC(c3ccc(-c4cnccn4)cc3)CC2)cc1NS(C)(=O)=O` [Example 174, N-[2-methyl-5-[4-(4-pyrazin-2-ylphenyl)piperidine-1-carbonyl]phenyl]methanesulfonamide] here?
The inhibition at 100 µM was 92%.

`Cc1ccc(C(=O)N2CCC(c3ccc(C#N)cc3)CC2)cc1NS(=O)(=O)CC1(C)NC(=O)NC1=O` (stereo in doubt) [Example 147, N-[5-[4-(4-cyanophenyl)piperidine-1-carbonyl]-2-methyl-phenyl]-1-[(4R)-4-methyl-2,5-dioxo-imidazolidin-4-yl]methanesulfonamide] was tested. Which inhibition at 100 µM did it give?
The inhibition at 100 µM was 98%.

How did the inhibition at 100 µM turn out when `Cc1ccc(C2CCN(C(=O)c3ccc(C)c(NS(C)(=O)=O)c3)CC2)cc1` [Example 158, N-[2-methyl-5-[4-(4-methylphenyl)piperidine-1-carbonyl]phenyl]methanesulfonamide] was run?
Its inhibition at 100 µM is 81%.

same assay, conditions: compounds excluded from the claims by proviso

`Cc1ccc(C(=O)N2CCC(O)(c3ccccc3F)CC2)cc1NS(C)(=O)=O` [N-[5-[4-(2-fluorophenyl)-4-hydroxypiperidine-1-carbonyl]-2-methylphenyl]methanesulfonamide] was tested. Which “IC50s in the range of about 0.001 μM to about 30 μM” value (from here on “IC50s in the range”) did it give?
The value was “do not have IC50s in the range of about 0.001 μM to about 30 μM”.

For `CNC(=O)c1ccccc1S(=O)(=O)Nc1cc(C(=O)N2CCC(c3ccc(C#N)cc3)CC2)ccc1C` [2-[[5-[4-(4-cyanophenyl)piperidine-1-carbonyl]-2-methylphenyl]sulfamoyl]-N-methylbenzamide], which “IC50s in the range” value is on record?
Its value is “do not have IC50s in the range of about 0.001 μM to about 30 μM”.

For `Cc1ccc(C(=O)N2CCC(c3ccc(-c4ncccn4)cc3)CC2)cc1NS(C)(=O)=O` [N-[2-methyl-5-[4-(4-pyrimidin-2-ylphenyl)piperidine-1-carbonyl]phenyl]methanesulfonamide], which “IC50s in the range” value is on record?
The value was “do not have IC50s in the range of about 0.001 μM to about 30 μM”.
